Data on two substances can be found in publication PMC9449670, “Two types of peptides derived from the neurotoxin GsMTx4 inhibit a mechanosensitive potassium channel by modifying the mechanogate” (The Journal of Biological Chemistry, 2022).

In test [1] the target is T1, stretch-activated BK channel (SAKcaC) (Gallus gallus, UniProt Q8AYS8).
T1 construct: expressed in transfected cells; host or cells: CHO-K1, transient transfection of pcDNA 3.1 with Lipofectamine 2000; pEGFP co-expressed as a separate marker
Kind of test: Single-channel excised inside-out patch clamp of SAKcaC expressed in CHO-K1 cells, peptide backfilled in the pipette (extracellular side). It counts as cell-based, chick. To be noted: Vm −80 mV, [Ca2+]i 1 mM. The text has this:
(§1) The SA BK (SAKca) channel (SAKcaC) gene was cloned from the complementary DNA (cDNA) library (GenBank accession number: AB072618) from chick embryonic hearts ([13]); this was further subcloned into mammalian expression vectors (pcDNA 3.1). SAKca STREX (stress axis–regulated exon) deletion mutation (STREX-Del) was verified by sequencing as published previously ([35], [51]). Cloned SAKcaC (SAKca-WT) or STREX-Del mutant cDNAs were transiently transfected in the CHO-K1 cells using the Lipofectamine 2000 Transfection Reagent (Thermo Fisher Scientific) according to the manufacturer’s protocol. To monitor the successfully transfected cells, pEGFP (Clontech Laboratories) was coexpressed with the SAKca-WT or STREX-Del channel cDNA (5:1, w/w). The transfected cells grown on the coverslip were used for patch-clamp recordings. No endogenous BK channel activity was detected in the untransfected CHO-K1 cells. Currents were normally recorded within 1 week after cDNA transfection ([13], [37], [38]).
(§2) Single-channel currents for SAKcaC were recorded under the standard excised inside–out patch configuration. Currents were amplified using an A&M amplifier (Model 2400) or an EPC10 patch-clamp amplifier (HEKA Elektronik). Data were filtered at 10 kHz. The standard pipette solution facing the extracellular surface of the patch contained (in millimolar): 145 potassium gluconate, 1 EGTA, 10 Hepes, and 5 glucose, pH 7.4 was adjusted with NaOH. The bath solution facing the cytoplasmic surface of the patch membrane was the same except the [Ca^2+]i concentration used was 1 mM ([13], [38]).
(§3) In brief, the normal pipette solution was first filled in the tips of the electrodes, and then the same solution containing the peptide was backfilled. […] All experiments were performed with standard inside–out patch configuration at room temperature (22–25 °C).
(§4) Single-channel conductances of SAKcaC and the STREX-del mutant channel were determined by the slope of current–voltage (I–V) curves, where I–V data could be well fitted with a linear function ([12], [54]). Amplitude histograms were measured in inside–out patches mostly with one to three channels. […] In the case when only one channel was contained in patches, channel open probability Po (%) was determined simply by driving the total open duration of the sum of the open and closed times in patches as described previously ([51], [55]). When multiple channels were presented in the patch, Po was determined using the area under each peak (aj) at each current level (j) in the histogram along with the number of channels (N):(1) Po=∑j=0n(j∗aj)/n×∑j=0Naj Where N is the channel number in each patch, which was defined from the maximum level observed at a relatively higher voltage of +80 mV under 1 mM [Ca^2+]i.

Test [2] has as its target T2, stretch-activated BK channel (SAKcaC, SAKca-WT) (Gallus gallus, UniProt Q8AYS8).
T2 construct: Native SAKcaCs were recorded from ventricular myocytes; endogenous in cells; host or cells: isolated chick ventricular myocytes
Kind of test: Single-channel excised inside-out patch clamp of native SAKcaC from ventricular myocytes, peptide backfilled in the pipette. Format: cell-based, chick. The following applies: for slope factor K^−1 of Po–V relationship (Boltzmann fit): control (no peptide) 25.1 ±1.16; for slope factor K^−1 of Po–V relationship (Boltzmann fit) / V1/2 of Po–V relationship (Boltzmann fit) / channel open probability Po with 50 nM peptide / channel open probability Po with 100 nM peptide / channel open probability Po with 0 nM peptide (control of the dose series) / Hill cofactor of dose–response curve: ventricular myocytes; for V1/2 of Po–V relationship (Boltzmann fit): control (no peptide) −91.5 ± 1.36 mV, n = 6 to 9; for channel open probability Po with 50 nM peptide / channel open probability Po with 100 nM peptide: 25 min following backfilling; for channel open probability Po with 50 nM peptide / channel open probability Po with 100 nM peptide / channel open probability Po with 0 nM peptide (control of the dose series): [Ca2+]i 1 mM, single sample patch. The procedure:
Native SAKcaCs were recorded from ventricular myocytes, which were isolated from chick hearts as described previously ([12], [13], [37]).
as §2, §3
Single-channel conductances of SAKcaC and the STREX-del mutant channel were determined by the slope of current–voltage (I–V) curves, where I–V data could be well fitted with a linear function ([12], [54]). Amplitude histograms were measured in inside–out patches mostly with one to three channels. Histograms were fitted with a Gaussian function using pClampfit software (Molecular Devices Corp.). In the case when only one channel was contained in patches, channel open probability Po (%) was determined simply by driving the total open duration of the sum of the open and closed times in patches as described previously ([51], [55]). When multiple channels were presented in the patch, Po was determined using the area under each peak (aj) at each current level (j) in the histogram along with the number of channels (N):(1) Po=∑j=0n(j∗aj)/n×∑j=0Naj Where N is the channel number in each patch, which was defined from the maximum level observed at a relatively higher voltage of +80 mV under 1 mM [Ca^2+]i.
In general terms: The patch-clamp technique gives a direct electrical read-out from membranes.

In test [3] the test system is STREX-del mutant channel (SAKcaC with STREX-exon removed). Kind of test: Single-channel inside-out patch clamp of mechano-insensitive STREX-del mutant channel expressed in CHO cells. Format: cell-based, chick.
Description: as §1
Single-channel currents for SAKcaC were recorded under the standard excised inside–out patch configuration. […]
as §4

For a further test, the system named is BK (mSlo1) channel. Kind of test: Macroscopic currents of regular BK (mSlo1) channel in excised inside-out patches from Xenopus laevis oocytes. It counts as cell-based, mouse. To be noted: 10 μM peptide backfilled, 25 min, [Ca2+]i 100 μM, n = 4-6. The procedure:
Macroscopic currents for regular BK (mSlo1) channels were recorded from Xenopus laevis oocytes by using standard excised inside–out patches. mSlo1 cDNA was a gift from the laboratory of Dr Christopher Lingle (Washington University), of which the vector pXMX was designed to promote […] expression ([12], [36], [52]). pClamp (Molecular Devices) was used to drive stimulus protocols and digitize currents as described previously ([51], [53]). The standard pipette (extracellular) solution contains (in millimolar): 140 KMES (methanesulfonate), 20 KOH, 10 Hepes, 2 MgCl2, and pH 7.0. The internal solution contains (in millimolar) 140 KMES, 20 KOH, 10 Hepes, 5 EGTA, and pH 7.0. The free intracellular [Ca^2+]i solution was buffered as described previously ([36], [52]).
as §3

Test [4] has as its system STREX-del mutant channel (SAKcaC with STREX-exon removed). To be noted: earlier work of the authors; cited from earlier work. The text has this:
We next examined whether the two types of peptides function on the mechano-insensitive mutant channel. We have previously identified a mechano-insensitive-mutant (STREX-del) channel, of which the mechanosensor domain (STREX-exon) in SAKcaC was removed ([37], [38]). […] To investigate whether the synthetic short peptides act similarly to GsMTx4, we performed the same experiments to examine the effects of the two types of sh ...

Bridges are numbered along the chain shown (N, C = ends). Where no end group is shown, it is not given here.

T1 sequence (Q8AYS8 1-1195 isoform Q8AYS8-3): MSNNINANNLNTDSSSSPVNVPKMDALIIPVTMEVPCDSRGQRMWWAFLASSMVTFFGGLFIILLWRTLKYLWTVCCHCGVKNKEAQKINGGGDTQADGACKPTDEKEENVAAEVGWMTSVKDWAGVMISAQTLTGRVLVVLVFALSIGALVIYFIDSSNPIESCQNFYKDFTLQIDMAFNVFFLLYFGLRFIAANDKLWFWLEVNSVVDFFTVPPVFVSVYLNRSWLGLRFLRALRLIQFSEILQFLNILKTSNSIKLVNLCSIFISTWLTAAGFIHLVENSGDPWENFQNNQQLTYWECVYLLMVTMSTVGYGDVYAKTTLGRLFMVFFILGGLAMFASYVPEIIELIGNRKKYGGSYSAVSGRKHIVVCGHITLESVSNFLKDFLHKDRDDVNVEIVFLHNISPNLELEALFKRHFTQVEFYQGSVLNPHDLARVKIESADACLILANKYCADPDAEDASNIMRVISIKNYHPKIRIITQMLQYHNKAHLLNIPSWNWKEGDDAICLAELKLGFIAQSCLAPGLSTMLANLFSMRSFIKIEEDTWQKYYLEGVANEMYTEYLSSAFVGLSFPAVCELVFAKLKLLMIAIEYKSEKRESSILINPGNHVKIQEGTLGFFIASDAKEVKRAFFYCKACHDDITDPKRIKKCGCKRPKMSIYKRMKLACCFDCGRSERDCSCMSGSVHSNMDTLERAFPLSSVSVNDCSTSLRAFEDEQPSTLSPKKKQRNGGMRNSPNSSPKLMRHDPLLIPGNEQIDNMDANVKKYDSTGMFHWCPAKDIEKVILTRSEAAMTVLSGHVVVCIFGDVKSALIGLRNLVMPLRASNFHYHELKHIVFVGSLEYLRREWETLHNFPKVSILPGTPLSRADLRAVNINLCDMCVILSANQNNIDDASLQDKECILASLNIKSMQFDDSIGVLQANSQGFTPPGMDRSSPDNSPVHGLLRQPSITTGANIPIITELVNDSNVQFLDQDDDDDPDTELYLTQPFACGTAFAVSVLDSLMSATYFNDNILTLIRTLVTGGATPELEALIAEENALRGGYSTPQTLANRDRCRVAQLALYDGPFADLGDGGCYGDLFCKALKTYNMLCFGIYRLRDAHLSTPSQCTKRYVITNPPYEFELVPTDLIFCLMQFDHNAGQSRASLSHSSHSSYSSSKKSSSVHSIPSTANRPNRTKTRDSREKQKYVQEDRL
T2 sequence (Q8AYS8 1-1195 isoform Q8AYS8-3): as above

As to “WKCNPNDDKC (disulfide 3-10 (inferred)) [Pept 02, 10-residue type II peptide derived from loop2 of GsMTx4]”, in test [1] (5 μM peptide backfilled), the “inhibitory effect on SAKcaC, in words” value is given as “enhanced inhibition (%)”. The “averaged diffusion/inhibitory rate (τ), single-exponential fit of Po time course” value in test [1] (5 μM peptide, mean ± SEM, at least four experiments, SEM) was 2.89 ± 0.16 min. Moreover, in test [1] (5 μM peptide, single sample patch), the “channel open probability Po at 16 min following backfilling” value is 3.6%. In addition, the “channel open probability Po before peptide reaches the membrane (0 peptide, 2 min after backfilling)” value in test [1] (baseline of the same patch, 5 μM peptide backfilled, 22–25 °C, single sample patch) is given as 42.9%. The “inhibition of SAKcaC Po at +30 mV” value in test [2] (50 nM peptide, Vm +30 mV) was approximately 10.3%. Moreover, the “inhibition of SAKcaC Po at −50 mV” value in test [2] (50 nM peptide, Vm −50 mV) was approximately 71.3%. In addition, in test [2] (50 nM peptide), the “slope factor K^−1 of Po–V relationship (Boltzmann fit)” value was 22.9 ± 1.11 and the “V1/2 of Po–V relationship (Boltzmann fit)” value is given as −23.7 ± 1.06 mV. Further, the “inhibition of SAKcaC at depolarized condition, in words” value in test [2] (10 μM peptide, Vm +30 mV) is “completely inhibited”. Moreover, in test [2] (Vm −50 mV), the “channel open probability Po with 50 nM peptide” value turned out to be 22.1%, the “channel open probability Po with 100 nM peptide” value was determined as 6.8%, the “channel open probability Po with 0 nM peptide (control of the dose series)” value turned out to be 72.5% and the “Hill cofactor of dose–response curve” value came to 1.8 ± 0.52. In test [3] (10 μM peptide backfilled, −60 mV (Pept 02 also +30 mV), up to 25–30 min), the “effect on STREX-del mutant channel, in words” value is reported as “not significantly altered”. The “V1/2 of Po–V relationship of STREX-del (Boltzmann fit)” value in test [3] (10 μM peptide, Po 25 min following backfilling, control (no peptide) −9.2 ± 2.3 mV, n = 4 to 9) is on record as −5.7 ± 2.6 mV. Also, in test [3] (10 μM peptide, control (no peptide) 23.3 ± 2.8), the “slope factor K^−1 of Po–V relationship of STREX-del” value is 22.5 ± 2.1. The “effect on regular BK (mSlo1) channel, in words” value in the test on BK (mSlo1) channel was “failed to inhibit”.

For “GsMTx4 (GCLEFWWKCNPNDDKCCRPKLKCSKLFKLCNFSF; disulfide (positions not given here); ends not checked; UniProt Q7YT39 47-80, looked up) [reference compound]”, in test [2] (50 nM peptide), the “slope factor K^−1 of Po–V relationship (Boltzmann fit)” value was 24.5 ± 1.63 and the “V1/2 of Po–V relationship (Boltzmann fit)” value is listed as −47.2 ± 0.97 mV. For the same substance, in test [2] (Vm −50 mV), the “channel open probability Po with 50 nM peptide” value is on record as 47.1%, the “channel open probability Po with 100 nM peptide” value came to 13.8%, the “channel open probability Po with 0 nM peptide (control of the dose series)” value is on record as 73.6% and the “Hill cofactor of dose–response curve” value came out at 1.6 ± 0.47. Besides, the “effect on STREX-del channel, in words” value in test [4] is “without effect”.
